Assay results as given in patent US11919901B2 (Syndax Pharmaceuticals, Inc., priority 2021, dated 2024).

Tested on: MV4-11 cells
Assay: Cell proliferation assay MV4;11 (CellTiter-Glo, 72 hours)
Format: cell-based
Settings: Homo sapiens; MV4;11 leukemia cell line, 72 hours; read-out: MV4; 11 IC50
How it was run: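 MV4-11 cells (MLL1-AF4 fusion) exposed 72 h at 37 °C to 8 compound concentrations, final 0.632–2000 nM. Viability by CellTiter-Glo luminescence as % of vehicle RLU; % max inhibition = 100 − viability at top concentration.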

Row | Compound | IC50 [nM]
1 | CCN(C(=O)c1cc(F)ccc1Oc1cncnc1N1CC2(CCN(C[C@@H]3CC[C@@H](NS(=O)(=O)c4ccccc4)CO3)CC2)C1)C(C)C [Example 45, N-Ethyl-5-fluoro-N-isopropyl-2-((4-(7-(((2S,5R)-5-(phenylsulfonamido)tetrahydro-2H-pyran-2-yl)methyl)-2,7-diazaspiro[3.5]nonan-2-yl)pyrimidin-5-yl)oxy)benzamide] | < 100
2 | CCS(=O)(=O)N[C@@H]1CC[C@@H](CN2CCC3(CC2)CN(c2ncncc2Oc2ccc(F)cc2C(=O)N(C(C)C)[C@@H]2CCOC2)C3)OC1 [Example 46, 2-((4-(7-(((2S,5R)-5-(Ethylsulfonamido)tetrahydro-2H-pyran-2-yl)methyl)-2,7-diazaspiro[3.5]nonan-2-yl)pyrimidin-5-yl)oxy)-5-fluoro-N-isopropyl-N-((R)-tetrahydrofuran-3-yl)benzamide] | < 100
3 | CC(C)N(CC(F)F)C(=O)c1cc(F)ccc1Oc1cncnc1N1CC2(CCN(C[C@@H]3CC[C@@H](NS(=O)(=O)C4CC4)CO3)CC2)C1 [Example 47, 2-((4-(7-(((2S,5R)-5-(Cyclopropanesulfonamido)tetrahydro-2H-pyran-2-yl)methyl)-2,7-diazaspiro[3.5]nonan-2-yl)pyrimidin-5-yl)oxy)-N-(2,2-difluoroethyl)-5-fluoro-N-isopropylbenzamide] | < 100
4 | CCS(=O)(=O)N[C@@H]1CC[C@@H](CN2CCC3(CC2)CN(c2ncncc2Oc2ccc(F)cc2C(=O)N(C(C)C)C2COC2)C3)OC1 [Example 48, 2-((4-(7-(((2S,5R)-5-(Ethylsulfonamido)tetrahydro-2H-pyran-2-yl)methyl)-2,7-diazaspiro[3.5]nonan-2-yl)pyrimidin-5-yl)oxy)-5-fluoro-N-isopropyl-N-(oxetan-3-yl)benzamide] | < 100
5 | CCN(C(=O)c1cc(F)ccc1Oc1cncnc1N1CC2(CCN(C[C@@H]3CC[C@@H](NS(=O)(=O)N(C)C)CO3)CC2)C1)C(C)C [Example 49, 2-((4-(7-(((2S,5R)-5-((N,N-Dimethylsulfamoyl)amino)tetrahydro-2H-pyran-2-yl)methyl)-2,7-diazaspiro[3.5]nonan-2-yl)pyrimidin-5-yl)oxy)-N-ethyl-5-fluoro-N-isopropylbenzamide] | < 100
6 | COCCN(C(=O)c1cc(F)ccc1Oc1cncnc1N1CC2(CCN(C[C@@H]3CC[C@@H](NS(=O)(=O)C4CC4)CO3)CC2)C1)C(C)C [Example 51, 2-((4-(7-(((2S,5R)-5-(Cyclopropanesulfonamido)tetrahydro-2H-pyran-2-yl)methyl)-2,7-diazaspiro[3.5]nonan-2-yl)pyrimidin-5-yl)oxy)-5-fluoro-N-isopropyl-N-(2-methoxyethyl)benzamide] | < 100
7 | CCN(C(=O)c1cc(F)ccc1Oc1cncnc1N1CC2(CCN(C[C@@H]3CC[C@@H](NS(=O)(=O)c4ccc(C)cc4)CO3)CC2)C1)C(C)C [Example 55, N-Ethyl-5-fluoro-N-isopropyl-2-((4-(7-(((2S,5R)-5-((4-methylphenyl)sulfonamido)tetrahydro-2H-pyran-2-yl)methyl)-2,7-diazaspiro[3.5]nonan-2-yl)pyrimidin-5-yl)oxy)benzamide] | < 100
8 | CCN(C(=O)c1cc(F)ccc1Oc1cncnc1N1CC2(CCN(C[C@@H]3CC[C@@H](NS(=O)(=O)c4ccccc4C)CO3)CC2)C1)C(C)C [Example 56, N-Ethyl-5-fluoro-N-isopropyl-2-((4-(7-(((2S,5R)-5-((2-methylphenyl)sulfonamido)tetrahydro-2H-pyran-2-yl)methyl)-2,7-diazaspiro[3.5]nonan-2-yl)pyrimidin-5-yl)oxy)benzamide] | < 100
9 | CCN(C(=O)c1cc(F)ccc1Oc1cncnc1N1CC2(CCN(C[C@@H]3CC[C@@H](NS(=O)(=O)c4cccc(Cl)c4)CO3)CC2)C1)C(C)C [Example 57, 2-((4-(7-(((2S,5R)-5-((3-Chlorophenyl)sulfonamido)tetrahydro-2H-pyran-2-yl)methyl)-2,7-diazaspiro[3.5]nonan-2-yl)pyrimidin-5-yl)oxy)-N-ethyl-5-fluoro-N-isopropylbenzamide] | < 100
10 | CCN(C(=O)c1cc(F)ccc1Oc1cncnc1N1CC2(CCN(C[C@@H]3CC[C@@H](NS(=O)(=O)c4ccccn4)CO3)CC2)C1)C(C)C [Example 58, N-ethyl-5-fluoro-N-isopropyl-2-((4-(7-(((2S,5R)-5-(pyridine-2-sulfonamido)tetrahydro-2H-pyran-2-yl)methyl)-2,7-diazaspiro[3.5]nonan-2-yl)pyrimidin-5-yl)oxy)benzamide] | < 100
11 | CCN(C(=O)c1cc(F)ccc1Oc1cncnc1N1CC2(CCN(C[C@@H]3CC[C@@H](NS(=O)(=O)c4ccccc4Cl)CO3)CC2)C1)C(C)C [Example 59, 2-((4-(7-(((2S,5R)-5-((2-Chlorophenyl)sulfonamido)tetrahydro-2H-pyran-2-yl)methyl)-2,7-diazaspiro[3.5]nonan-2-yl)pyrimidin-5-yl)oxy)-N-ethyl-5-fluoro-N-isopropylbenzamide] | < 100
12 | CCN(C(=O)c1cc(F)ccc1Oc1cncnc1N1CC2(CCN(C[C@@H]3CC[C@@H](NS(=O)(=O)c4cccc(C)c4)CO3)CC2)C1)C(C)C [Example 60, N-ethyl-5-fluoro-N-isopropyl-2-((4-(7-(((2S,5R)-5-((3-methylphenyl)sulfonamido)tetrahydro-2H-pyran-2-yl)methyl)-2,7-diazaspiro[3.5]nonan-2-yl)pyrimidin-5-yl)oxy)benzamide] | < 100
13 | CCN(C(=O)c1cc(F)ccc1Oc1cncnc1N1CC2(CCN(C[C@@H]3CC[C@@H](NS(=O)(=O)c4ccc(Cl)cc4)CO3)CC2)C1)C(C)C [Example 61, 2-((4-(7-(((2S,5R)-5-((4-Chlorophenyl)sulfonamido)tetrahydro-2H-pyran-2-yl)methyl)-2,7-diazaspiro[3.5]nonan-2-yl)pyrimidin-5-yl)oxy)-N-ethyl-5-fluoro-N-isopropylbenzamide] | < 100
14 | CCN(C(=O)c1cc(F)ccc1Oc1cncnc1N1CC2(CCN(C[C@@H]3CC[C@@H](NS(=O)(=O)c4ccc(OC)cc4)CO3)CC2)C1)C(C)C [Example 62, N-Ethyl-5-fluoro-N-isopropyl-2-((4-(7-(((2S,5R)-5-((4-methoxyphenyl)sulfonamido)tetrahydro-2H-pyran-2-yl)methyl)-2,7-diazaspiro[3.5]nonan-2-yl)pyrimidin-5-yl)oxy)benzamide] | < 100
15 | CCN(C(=O)c1cc(F)ccc1Oc1cncnc1N1CC2(CCN(C[C@@H]3CC[C@@H](NS(=O)(=O)c4cccnc4)CO3)CC2)C1)C(C)C [Example 63, N-Ethyl-5-fluoro-N-isopropyl-2-((4-(7-(((2S,5R)-5-(pyridine-3-sulfonamido)tetrahydro-2H-pyran-2-yl)methyl)-2,7-diazaspiro[3.5]nonan-2-yl)pyrimidin-5-yl)oxy)benzamide] | < 100
16 | CCN(C(=O)c1cc(F)ccc1Oc1cncnc1N1CC2(CCN(C[C@@H]3CC[C@@H](NS(=O)(=O)N4CCOCC4)CO3)CC2)C1)C(C)C [Example 64, N-Ethyl-5-fluoro-N-isopropyl-2-((4-(7-(((2S,5R)-5-(morpholine-4-sulfonamido)tetrahydro-2H-pyran-2-yl)methyl)-2,7-diazaspiro[3.5]nonan-2-yl)pyrimidin-5-yl)oxy)benzamide] | < 100
17 | CCN(C(=O)c1cc(F)ccc1Oc1cncnc1N1CC2(CCN(C[C@@H]3CC[C@@H](NS(=O)(=O)c4ccccc4OC)CO3)CC2)C1)C(C)C [Example 65, N-Ethyl-5-fluoro-N-isopropyl-2-((4-(7-(((2S,5R)-5-((2-methoxyphenyl)sulfonamido)tetrahydro-2H-pyran-2-yl)methyl)-2,7-diazaspiro[3.5]nonan-2-yl)pyrimidin-5-yl)oxy)benzamide] | < 100
18 | CCN(C(=O)c1cc(F)ccc1Oc1cncnc1N1CC2(CCN(C[C@@H]3CC[C@@H](NS(=O)(=O)c4cccc(OC)c4)CO3)CC2)C1)C(C)C [Example 66, N-Ethyl-5-fluoro-N-isopropyl-2-((4-(7-(((2S,5R)-5-((3-methoxyphenyl)sulfonamido)tetrahydro-2H-pyran-2-yl)methyl)-2,7-diazaspiro[3.5]nonan-2-yl)pyrimidin-5-yl)oxy)benzamide] | < 100
19 | CCN(C(=O)c1cc(F)ccc1Oc1cncnc1N1CC2(CCN(C[C@@H]3CC[C@@H](NS(=O)(=O)N4CCC4)CO3)CC2)C1)C(C)C [Example 69, 2-((4-(7-(((2S,5R)-5-(Azetidine-1-sulfonamido)tetrahydro-2H-pyran-2-yl)methyl)-2,7-diazaspiro[3.5]nonan-2-yl)pyrimidin-5-yl)oxy)-N-ethyl-5-fluoro-N-isopropylbenzamide] | < 100
20 | CCN(C(=O)c1cc(F)ccc1Oc1cncnc1N1CC2(CCN(C[C@@H]3CC[C@@H](NS(N)(=O)=O)CO3)CC2)C1)C(C)C [Example 73, N-Ethyl-5-fluoro-N-isopropyl-2-((4-(7-(((2S,5R)-5-(sulfamoylamino)tetrahydro-2H-pyran-2-yl)methyl)-2,7-diazaspiro[3.5]nonan-2-yl)pyrimidin-5-yl)oxy)benzamide] | 100 to 1000
21 | CCN(C(=O)c1cc(F)ccc1Oc1cncnc1N1CC2(CCN(C[C@@H]3CC[C@@H](NS(=O)(=O)NC)CO3)CC2)C1)C(C)C [Example 76, N-Ethyl-5-fluoro-N-isopropyl-2-((4-(7-(((2S,5R)-5-((N-methylsulfamoyl)amino)tetrahydro-2H-pyran-2-yl)methyl)-2,7-diazaspiro[3.5]nonan-2-yl)pyrimidin-5-yl)oxy)benzamide] | < 100
22 | CC(C)N(C(=O)c1cc(F)ccc1Oc1cncnc1N1CC2(CCN(C[C@@H]3CC[C@@H](NS(=O)(=O)N(C)C)CO3)CC2)C1)C(C)C [Example 77, 2-((4-(7-(((2S,5R)-5-((N,N-Dimethylsulfamoyl)amino)tetrahydro-2H-pyran-2-yl)methyl)-2,7-diazaspiro[3.5]nonan-2-yl)pyrimidin-5-yl)oxy)-5-fluoro-N,N-diisopropylbenzamide] | < 100
23 | CC(C)N(C(=O)c1cc(F)ccc1Oc1cncnc1N1CC2(CCN(C[C@@H]3CC[C@@H](NS(=O)(=O)N4CCOCC4)CO3)CC2)C1)C(C)C [Example 78, 5-Fluoro-N,N-diisopropyl-2-((4-(7-(((2S,5R)-5-(morpholine-4-sulfonamido)tetrahydro-2H-pyran-2-yl)methyl)-2,7-diazaspiro[3.5]nonan-2-yl)pyrimidin-5-yl)oxy)benzamide] | < 100
